Reference: patent publication US20160115540A1, “PRODRUGS AND DRUGS” (Biogen MA Inc., priority 2013, published 2016)
Structures can show the parent of a compound that is named as a salt.

System: kidney
Assay: Transcriptional profiling on Affymetrix GeneChips, single dose, naïve mice: kidney
Type: in vivo, C57BL/6 mice
Conditions: for FC: 100DMF-vs-Veh, fold change of the probe set/gene named in the row (Affymetrix, naïve single dose); for Number of differentially expressed genes identified: Kidney: Naïve, Single Dose
Method: Treated mice were sacrificed at 2, 7, or 12 hours. Tissues (liver, spleen, kidney, jejunum, cortex, hippocampus, striatum and whole blood) were collected and analyzed by transcriptional profiling on mouse Affymetrix GeneChips.
Tissues (liver, spleen, kidney, jejunum, cortex, hippocampus, striatum and whole blood) were collected and analyzed by transcriptional profiling on mouse Affymetrix GeneChips.
Animals were exposed to CO2 and whole blood collected via cardiac puncture. Two 100 μl aliquots of whole blood were collected in 1.5 mL microcentrifuge tubes and snap frozen in liquid nitrogen. Peripheral (liver, spleen, kidney and jejunum) and CNS brain (cerebellum, hippocampus, striatum and cortex) tissues were harvested and snap frozen in liquid nitrogen, with special care taken to collect tissues of similar size and from the same location. All samples were stored at −80° C. until RNA extraction was conducted.
For RNA preparation, frozen tissues were placed in 2 mL RNAse-free 96-well blocks with 1.5 mL QIAzol Lysis Reagent (QIAgen) and a 3.2 mm stainless steel bead (BioSpec Products, Bartlesville, Okla.). Tissues were disrupted for four cycles of 45 seconds in a Mini-Beadbeater (Biospec Products). RNA was extracted in chloroform and the aqueous phase was mixed with an equal volume of 70% ethanol. Extracted RNA was applied to RNeasy 96 plates and purified by the spin method according to the manufacturer's protocol (RNeasy 96 Universal Tissue Protocol, QIAgen, Hilden Germany).
Automated sample amplifications and biotin labelings were carried out using the NuGEN Ovation RNA Amplification system V2 (Cat #3100), Ovation WB reagent (Cat #1300) and Encore Biotin module (Cat #4200) (NuGEN Technologies, Inc, San Carlos, Calif.) according to manufacturer's recommendations using an Arrayplex automated liquid handler (Beckman Coulter, Indianapolis, Ind.). Two micrograms of biotin labeled sscDNA probe were hybridized to Affymetrix GeneChip Affymetrix HT_MG-430_PM plate arrays with modified conditions as described in Allaire et al. Washing and staining of the hybridized arrays were completed as described in the GeneChip Expression analysis technical manual for HT plate arrays using the Genechip® Array Station (Affymetrix, Santa Clara, Calif.) with modifications as described in Allaire et al. The processed GeneChip® plate arrays were scanned using GeneTitan scanner (Affymetrix, Santa Clara, Calif.).
Affymetrix scans were subject to quality control (QC) measures. These tests included a visual inspection of the distribution of raw signal intensities and an assessment of RNA degradation, relative log expression (RLE), and normalized unsealed standard error (NUSE). All sample scans that passed these QC metrics were included in the analysis.
All CEL files were subjected to GC-content-based Robust Multi-array Average (GCRMA) normalization (version 2.20.0) (Irizarry R A, et al. Nucleic Acids Res 2003; 31:e15; Li C, et al. Genome Biol 2001; 2:[…]0032). Expression levels were log (base 2) transformed.
All calculations and analyses were carried out using R (version 2.11.1) and Bioconductor computational tools (Gentleman R. Springer Science+Business Media 2005).

## COC(=O)/C=C/C(=O)OC [DMF, dimethyl fumarate]
100 DMF-vs-Veh, 2 h
  FC Kbtbd11 1431254_PM_at: −1.77
  FC Kbtbd11 1435465_PM_at: −1.50
  FC Kdm6b 1440346_PM_at: 1.52
  FC LOC100502834 1441010_PM_at: −1.53
  FC LOC100503447 1443908_PM_at: −1.72
  FC Lipg 1421262_PM_at: 2.42
  FC Lipg 1450188_PM_s_at: 1.94
  FC Lonrf3 1429863_PM_at: 4.13
  FC Lonrf3 1436200_PM_at: 3.86
  FC Maff 1418936_PM_at: 2.83
  FC Mdm2 1423605_PM_a_at: 1.51
  FC Mdm2 1427718_PM_a_at: 1.66
  FC Med13 1438725_PM_at: 2.02
  FC Mfsd2a 1428223_PM_at: −2.59
  FC Mir17hg 1428694_PM_at: 2.82
  FC Mpp6 1441546_PM_at: 1.62
  FC Mt1 1451612_PM_at: 2.79
  FC Mtch2 1438842_PM_at: 1.67
  FC Mthfd2 1419253_PM_at: 2.06
  FC Mthfd2 1419254_PM_at: 1.54
  FC Mylip 1424988_PM_at: −1.70
  FC Naa16 1429056_PM_at: 1.71
  FC Napsa 1430744_PM_at: −4.53
  FC Nat2 1449981_PM_a_at: −2.01
  FC Nlrp6 1427369_PM_at: −1.52
  FC Ntn4 1450512_PM_at: −1.67
  FC Nufip2 1435632_PM_at: 1.57
  FC Osgin1 (1424022_PM_at): 4.63
  FC Ovol1 1419051_PM_at: −1.60
  FC P4ha1 1452094_PM_at: 1.56
  FC Paip1 1441955_PM_s_at: 1.61
  FC Pank1 1429813_PM_at: −1.59
  FC Pgd 1423706_PM_a_at: 1.61
  FC Pgd 1438627_PM_x_at: 1.50
  FC Pgd (1436771_PM_x_at): 1.52
  FC Pgd (1437380_PM_x_at): 1.53
  FC Phf23 1428997_PM_at: 1.72
  FC Phip 1438535_PM_at: 1.50
  FC Plekhf2 1423862_PM_at: 1.54
  FC Plk3 1434496_PM_at: 3.14
  FC Polr3e 1429456_PM_a_at: −1.69
  FC Ppm1k 1441988_PM_at: −1.62
  FC Ppp1r15b 1436366_PM_at: 1.72
  FC Pppde1 1425185_PM_at: 1.94
  FC Pppde1 1451621_PM_at: 1.65
  FC Pprc1 1426381_PM_at: 1.74
  FC Prkar2b 1438664_PM_at: 2.43
  FC Prr5 1451463_PM_at: 1.65
  FC Psme4 1443116_PM_at: 1.56
  FC Rg9mtd2 1435035_PM_at: 1.82
  FC Rhebl1 1447818_PM_x_at: −1.57
  FC Rhebl1 1451516_PM_at: −2.01
  FC Riok2 1423481_PM_at: 1.62
  FC Rwdd2a 1428963_PM_at: 2.54
  FC Siah2 1448170_PM_at: 1.71
  FC Slc1a4 1423549_PM_at: 1.52
  FC Slc7a13 1431740_PM_at: −2.60
  FC Slc20a1 1448568_PM_a_at: 2.07
  FC Slc36a2 1436521_PM_at: 4.63
  FC Slc38a2 1426722_PM_at: 2.05
  FC Slc40a1 1448566_PM_at: 1.71
  FC Snhg1 1433674_PM_a_at: 1.62
  FC Snhg1 1433675_PM_at: 1.69
  FC Snx16 1438803_PM_s_at: 1.60
  FC Spry4 1440867_PM_at: 1.71
  FC Spry4 1445669_PM_at: 1.54
  FC Sqstm1 1450957_PM_a_at: 1.69
  FC Srsf7 1436871_PM_at: 1.57
  FC Srxn1 (1419942_PM_at): 1.62
  FC Srxn1 (1426875_PM_s_at): 1.59
  FC Susd3 1428975_PM_at: −1.51
  FC Syn3 1435311_PM_s_at: −1.73
  FC Taf15 1438130_PM_at: 1.59
  FC Them4 1431140_PM_at: 1.80
  FC Tmco6 1451692_PM_at: −1.57
  FC Tmem26 1435409_PM_at: −1.85
  FC Tmem26 (1434583_PM_at): −1.66
  FC Tmem88b 1436974_PM_at: −2.24
  FC Tnfaip3 1433699_PM_at: −1.83
  FC Tnfsf10 1439680_PM_at: −1.52
  FC Trim7 1439352_PM_at: −1.54
  FC Txnrd1 1421529_PM_a_at: 1.53
  FC Txnrd1 (1424487_PM_x_at): 1.99
  FC Ubiad1 1424213_PM_at: −1.61
  FC Ubxn7 1435912_PM_at: 1.51
  FC Vps37b 1424380_PM_at: 1.56
  FC Zbtb2 1434901_PM_at: 2.52
  FC Zfp30 1449813_PM_at: −1.55
  FC Zfp39 1441198_PM_at: −1.64
  FC Zfp93 1418955_PM_at: −1.74
  FC Zfp189 1425287_PM_at: 1.51
  FC Zfp295 1425305_PM_at: 2.68
  FC Zfp295 1441973_PM_at: 2.08
  FC Zfp759 1452623_PM_at: −1.65
  FC Zswim6 1434967_PM_at: 1.63
7 h
  FC: −1.82
12 h
  FC: 1.82
KIDNEY, 100 DMF-vs-Veh, 2 h
  FC Adm (1416077_PM_at): 1.56
  FC Bhlhe40 (1418025_PM_at): 1.59
  FC Cyr61 (1416039_PM_x_at): 2.43
  FC Dbf4 (1418334_PM_at): 2.08
  FC Ddit3 (1417516_PM_at): 3.97
  FC Dnaja1 (1416288_PM_at): 1.69
  FC Dnaja4 (1418591_PM_at): 2.05
  FC Dnaja4 (1418592_PM_at): 1.87
  FC Dnajb1 (1416755_PM_at): 3.03
  FC Dnajb1 (1416756_PM_at): 4.36
  FC Dusp6 (1415834_PM_at): 1.52
  FC Dusp16 (1418401_PM_a_at): 1.50
  FC Egr1 (1417065_PM_at): 4.60
  FC Gclm 1418627_PM_at: 1.51
  FC Hbegf (1418349_PM_at): 2.03
  FC Hbegf (1418350_PM_at): 2.21
  FC Ier2 (1416442_PM_at): 1.75
  FC Ifrd1 (1416067_PM_at): 1.52
  FC Igfbp1 (1418918_PM_at): −2.89
  FC Nab2 (1417930_PM_at): 2.74
  FC Nasp (1416042_PM_s_at): 1.62
  FC Nfil3 (1418932_PM_at): 2.29
  FC Pmaip1 (1418203_PM_at): 1.68
  FC Ppp2r3c (1417479_PM_at): 1.59
  FC Rcan1 (1416600_PM_a_at): 1.51
  FC Sertad1 (1417406_PM_at): 2.06
  FC Sirt1 (1418640_PM_at): 1.68
  FC Slc22a4 (1417639_PM_at): −1.51
  FC Tnfrsf12a 1418571_PM_at: 2.37
  FC Tnfrsf12a 1418572_PM_x_at: 2.33
  FC Tnnc1 (1418370_PM_at): 1.89
  FC Txnip (1415997_PM_at): −1.73
  FC Zfand2a (1415940_PM_at): 1.55
  FC Zfand5 (1416084_PM_at): 1.63
  FC Zfand5 (1416085_PM_s_at): 1.68
Kidney
  Number of genes, DMF Only / MMF Only: 61
Kidney, 2 hr
  Asns (1451095_PM_at) differential expression: 3.03
  Cbr3 (1427912_PM_at) differential expression: 3.04
  Gdf15 (1418949_PM_at) differential expression: 5.39
  Mthfd2 (1419253_PM_at) differential expression: 2.06
100 mpk DMF-vs-100 mpk MMF, 2 h after last dosing
  Number of differentially expressed genes identified: Kidney: 1
100 mpk DMF-vs-100 mpk MMF, 7 h after last dosing
  Number of differentially expressed genes identified: Kidney: 1
100 mpk DMF-vs-100 mpk MMF, 12 h after last dosing
  Number of differentially expressed genes identified: Kidney: 2
100 mpk, vs Vehicle, 2 h after last dosing
  Number of differentially expressed genes identified: Kidney: 331
100 mpk, vs Vehicle, 7 h after last dosing
  Number of differentially expressed genes identified: Kidney: 93
100 mpk, vs Vehicle, 12 h after last dosing
  Number of differentially expressed genes identified: Kidney: 100
kidney, 7 hr
  Asns (1451095_PM_at) differential expression: 1.92
  Cbr3 (1427912_PM_at) differential expression: 5.88
  Gdf15 (1418949_PM_at) differential expression: 1.75
  Mthfd2 (1419253_PM_at) differential expression: 1.65
kidney, 12 hr
  Asns (1451095_PM_at) differential expression: 2.65
  Cbr3 (1427912_PM_at) differential expression: 5.67
  Gdf15 (1418949_PM_at) differential expression: 1.77
  Mthfd2 (1419253_PM_at) differential expression: 1.60
kidney, 100DMF-vs-100MMF, 2 h
  FC 1439640_PM_at (no gene symbol): 1.54
kidney, 100DMF-vs-100MMF, 7 h
  FC Nr1d1 (1426464_PM_at): 1.56
kidney, 100DMF-vs-100MMF, 12 h
  FC 1441333_PM_at (no gene symbol): 1.91
  FC C76628 (1420187_PM_at): 1.59
